Data published in ChEMBL document CHEMBL1201862, “PubChem BioAssay data set” (2004).
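Interpolation was linear, between the two tested concentrations surrounding the appropriate level; five concentrations were tested over 48 hours in 96-well plates. GI50 is the concentration that inhibits growth by half.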 The source made the active and inactive calls. Cut-off read from the data, not from the text of the source: active = GI50 up to about 1.1 µM and inactive = higher. Non-standard residues stand in square brackets, D forms with d. Residues, ends and D or L forms follow the SMILES beside them. ξ: configuration not given here. ξLac(3-iPr) = CC(C)CC(O)C(=O)O; NMeV = CN[CH](C(=O)O)C(C)C; NMeA = CN[CH](C)C(=O)O; βAla = NCCC(=O)O

Columns and labels:
Experiment in all cases: NCI-60 cell line screen, 48 h
MDA-N = tested on: MDA-N
BT-549 = tested on: BT-549
HOP-18 = tested on: HOP-18
KM-20L2 = tested on: KM-20L2
SNB-78 = tested on: SNB-78
DMS-114 = tested on: DMS-114
DMS-273 = tested on: DMS-273
XF498 = tested on: XF498

Row | Compound | GI50 (MDA-N) | GI50 (BT-549) | further results
1 | COc1c(-c2ccc(O)c(O)c2)oc2c(O)c(O)cc(O)c2c1=O | 61.5 µM (inactive) | > 100 µM (inactive) | –
2 | COC(=O)CC(=O)OC | – | – | GI50 (HOP-18): > 100 µM (inactive); GI50 (KM-20L2): > 100 µM (inactive); GI50 (SNB-78): > 100 µM (inactive); GI50 (DMS-114): > 100 µM (inactive); GI50 (DMS-273): > 100 µM (inactive); GI50 (XF498): > 100 µM (inactive)
3 | CCCCNS(=O)(=O)c1n[nH]c(=O)[nH]c1=O | > 100 µM (inactive) | > 100 µM (inactive) | –
4 | Cc1ccc(/C=N\NC(=O)c2ccncc2)s1 | > 100 µM (inactive) | > 100 µM (inactive) | –
5 | CC1Cc2cc(O)c(O)cc2-c2cc(O)c(O)cc2CC1C (stereo not drawn) | 3.07 µM (inactive) | – | –
6 | Cc1cc(C#N)c[n+](C)c1 | > 100 µM (inactive) | > 100 µM (inactive) | –
7 | CN(CCNC(=O)c1n[nH]c2c1Cc1ccccc1-2)CCNC(=O)c1n[nH]c2c1Cc1ccccc1-2 | 16.5 µM (inactive) | 16.8 µM (inactive) | –
8 | Cc1ccc(/C=C/C(=O)c2cccc3ccccc23)cc1 | – | – | GI50 (KM-20L2): 15.8 µM (inactive); GI50 (SNB-78): 14.8 µM (inactive); GI50 (DMS-273): 19 µM (inactive); GI50 (XF498): 15.3 µM (inactive)
9 | COC(=O)C1CCC(=O)N1C(c1cc(OC)c(OC)c(OC)c1)c1cc(OC)c(OC)c(OC)c1 (stereo not drawn) | > 100 µM (inactive) | – | –
10 | O=C(O)CCC(NC(=O)c1ccc(Nc2nc3ccccc3nc2C(=O)O)cc1)C(=O)O (stereo not drawn) | > 100 µM (inactive) | > 100 µM (inactive) | –
11 | CCOC(=O)c1[nH]c2c(OC)n[n+]([O-])cc2c1[N+](=O)[O-] | – | – | GI50 (HOP-18): 20.5 µM (inactive); GI50 (KM-20L2): 15.5 µM (inactive); GI50 (SNB-78): 19.8 µM (inactive); GI50 (DMS-114): 22.2 µM (inactive); GI50 (XF498): 16.1 µM (inactive)
12 | COc1cccc(/N=N/C(=N\NC(=O)c2ccc(C)cc2)c2ccc(N(CCC#N)CCC#N)cc2C)c1 | > 100 µM (inactive) | 71 µM (inactive) | –
13 | CCCCNc1nc(NC2OCC(OC(C)=O)C(OC(C)=O)C2OC(C)=O)c(N=O)c(=O)n1C (stereo not drawn) | – | > 10 µM (inactive) | –
14 | N=C(N)SCCON1C(=O)c2ccccc2C1=O | > 100 µM (inactive) | > 100 µM (inactive) | –
15 | CN(C(=O)C12C3C4C5C3C1(C(=O)C13C6C7C8C6C1C8C73)C5C42)C(C)(C)C (stereo not drawn) | – | – | GI50 (HOP-18): > 50 µM (inactive); GI50 (KM-20L2): > 50 µM (inactive); GI50 (SNB-78): > 50 µM (inactive); GI50 (DMS-114): > 23.6 µM (inactive); GI50 (DMS-273): > 21.4 µM (inactive); GI50 (XF498): > 50 µM (inactive)
16 | CC1=C(OC2OC(CO)C(O)C(O)C2O)C(=O)C[C@H]2C1=CC[C@@H]1[C@@]2(C)C(=O)C[C@]2(C)[C@@H]([C@@](C)(O)C(=O)CCC(C)(C)O)[C@H](O)C[C@@]12C (stereo partly drawn) | > 100 µM (inactive) | > 100 µM (inactive) | –
17 | Cc1ccc2nc(Cl)c(/C=N/N3C(=O)/C(=C/Cc4ccco4)N=C3c3ccccc3)cc2c1 | 16.9 µM (inactive) | 29.7 µM (inactive) | –
18 | CCCCCCCCCCCCCCCCCCNc1ccn(C2OC(COP(=O)(O)OC3CC(n4cc(F)c(=O)[nH]c4=O)OC3COP(=O)(O)OCC3OC(n4ccc(N)nc4=O)C(O)C3O)C(O)C2O)c(=O)n1 (stereo not drawn) | – | 15.1 µM (inactive) | –

Row | Compound | GI50 (MDA-N) | GI50 (BT-549) | further results
19 | CC1=NN=C(N)N/C1=C\C(Sc1ccc(Cl)cc1)c1ccc(Cl)cc1Cl (stereo not drawn) | 19.7 µM (inactive) | 20 µM (inactive) | –
20 | O=[N+]([O-])c1ccc2nc3ccccc3cc2c1 | – | 4.05 µM (inactive) | –
21 | NC(=O)c1ncn2c(=O)n(CCl)nnc12 | > 100 µM (inactive) | > 100 µM (inactive) | –
22 | Clc1ccc(C2=Nc3ccccc3SC(c3ccc(Cl)c(Cl)c3)C2)c(Cl)c1 (stereo not drawn) | – | – | GI50 (KM-20L2): 18.3 µM (inactive); GI50 (SNB-78): 18.3 µM (inactive); GI50 (DMS-114): 9.89 µM (inactive); GI50 (DMS-273): 11.5 µM (inactive); GI50 (XF498): 12.4 µM (inactive)
23 | CCCN(CCC)C(=O)c1c([N+](=O)[O-])cc(C(F)(F)F)cc1[N+](=O)[O-] | – | – | GI50 (KM-20L2): 22.6 µM (inactive); GI50 (SNB-78): 35.2 µM (inactive); GI50 (DMS-273): 35.4 µM (inactive)
24 | Cc1ccc(NC(Nc2ccc(C)cc2C)=C(C(Cl)=C(Cl)Cl)[N+](=O)[O-])c(C)c1 | – | 14.2 µM (inactive) | –
25 | CCc1cccc(NC(=O)c2cc(/C=C/c3ccccc3)nc(S)n2)c1 | – | – | GI50 (HOP-18): > 100 µM (inactive); GI50 (KM-20L2): > 100 µM (inactive); GI50 (SNB-78): > 100 µM (inactive); GI50 (DMS-114): > 100 µM (inactive); GI50 (DMS-273): > 100 µM (inactive)
26 | Cc1ccc(C)c(N2C(=O)C(=O)c3c(C)ccc(C)c32)c1 | – | 19.5 µM (inactive) | –
27 | CC(NC(=O)OCc1ccccc1)NC(=O)C(CC(=O)OC(C)(C)C)NC(=O)OC(C)(C)C (stereo not drawn) | > 100 µM (inactive) | > 100 µM (inactive) | –
28 | CCOC(=O)c1[nH]c2nc(SC)nc(NC)c2c1N | > 100 µM (inactive) | > 100 µM (inactive) | –
29 | C[C@@]12C[C@@H](c3ccccc3O1)N1CCSC1=N2 | > 100 µM (inactive) | > 100 µM (inactive) | –
30 | COC1O[C@@H]2COC(C)(C)O[C@@H]2C(=O)N1Nc1ccc([N+](=O)[O-])cc1 (stereo partly drawn) | – | – | GI50 (HOP-18): > 100 µM (inactive); GI50 (KM-20L2): > 100 µM (inactive); GI50 (DMS-273): > 100 µM (inactive); GI50 (XF498): > 100 µM (inactive)
31 | c1ccc2c(c1)OC(N1CCCC1)c1cnc(N3CCCC3)nc1-2 (stereo not drawn) | – | 21.2 µM (inactive) | –
32 | NC1=NC(=O)[C@H](Cc2c[nH]c3ccccc23)N1C(=O)OCc1ccccc1 | > 100 µM (inactive) | 38.5 µM (inactive) | –
33 | C[N+](C)(C)CCCCCc1c2nc(c(CCCCC[N+](C)(C)C)c3ccc([nH]3)c(CCCCC[N+](C)(C)C)c3nc(c(CCCCC[N+](C)(C)C)c4ccc1[nH]4)C=C3)C=C2 | > 100 µM (inactive) | > 100 µM (inactive) | –
34 | C/C(=N\NC(=O)c1ccncc1)c1ccccc1F | > 10 µM (inactive) | – | –
35 | CCC(C)C1NC(=O)C2CCCN2C(=O)C(CC(C)C)OC(=O)CCNC(=O)C(C)N(C)C(=O)C(C(C)C)N(C)C1=O (stereo not drawn) (cyclo([ξLac(3-iPr)]PI[NMeV][NMeA][βAla]); configuration not given here) | 2.61 µM (inactive) | > 26.1 µM (inactive) | –
